Data as given in ChEMBL document CHEMBL1129395, “Targeting the minor groove of DNA: crystal structures of two complexes between furan derivatives of berenil and the DNA dodecamer d(CGCGAATTCGCG)2” (1996).

Columns and labels:
Format in all cases: functional
[1] = tested on: Pneumocystis carinii; experiment: in vivo activity against Pneumocystis carinii at dose of 22.1 umol/kg/day
[2] = tested on: Pneumocystis carinii; experiment: Percentage of control was reported as the counted cysts in lung tissue using blinded protocol of saline-treated controls on Pneumocystis carinii at dose of 22.1 umol/kg/day
[3] = tested on: Cryptosporidium parvum; experiment: percentage of controls is reported as the counted oocysts obtained from alimentary tract tissues using a blinded protocol on Cryptosporidium parvum at dose of 62 umol/kg/day
[4] = In vitro increase in thermal melting of oligomer d(CGCGAATTCGCG)2

In the case of `N=C(N)c1ccc(OCCCCCOc2ccc(C(=N)N)cc2)cc1` [PENTAMIDINE], the Toxicity [1] is reported as 2, the Of control [2] is reported as 1.47% and the Of control [3] is reported as 20.8%. For the same compound, the ΔTm [4] was 4.8.
